Data: publication PMC7530128 (Journal of the American Chemical Society, 2020)

T1: CblD (Homo sapiens, UniProt Q9H3L0)
T1 sequence (Q9H3L0 1-296): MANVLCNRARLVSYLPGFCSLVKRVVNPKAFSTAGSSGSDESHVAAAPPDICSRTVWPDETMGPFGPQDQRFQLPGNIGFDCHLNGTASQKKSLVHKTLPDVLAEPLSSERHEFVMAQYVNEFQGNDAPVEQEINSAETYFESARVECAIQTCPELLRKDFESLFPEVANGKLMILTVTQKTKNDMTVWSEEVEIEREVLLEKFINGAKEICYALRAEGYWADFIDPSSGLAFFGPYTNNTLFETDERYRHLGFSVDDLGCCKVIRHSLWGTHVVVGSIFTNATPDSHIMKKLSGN

T2: CblC (Homo sapiens, UniProt Q9Y4U1)
T2 chain: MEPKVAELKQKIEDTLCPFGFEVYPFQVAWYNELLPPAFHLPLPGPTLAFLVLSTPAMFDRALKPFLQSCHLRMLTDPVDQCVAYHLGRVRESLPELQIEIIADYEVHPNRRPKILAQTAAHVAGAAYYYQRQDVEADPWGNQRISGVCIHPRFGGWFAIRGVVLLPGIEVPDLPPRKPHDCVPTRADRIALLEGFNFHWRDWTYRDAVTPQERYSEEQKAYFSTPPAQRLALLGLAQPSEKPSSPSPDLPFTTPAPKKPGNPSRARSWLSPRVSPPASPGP


Tests used:
[1] = target: T1, CblD; test: UV-visible titration; assay type: binding
[2] = target: T2, CblC; test: ITC

Kd [2]	Molecule	Kd [1]
	H2OCbl	1000 ± 400 nM
40 nM	CblD (protein, cobalamin) SDESHVAAAPPDICSRTVWPDETMGPFGPQDQRFQLPGNIGFDCHLNGTASQKKSLVHKTLPDVLAEPLSSERHEFVMAQYVNEFQGNDAPVEQEINSAETYFESARVECAIQTCPELLRKDFESLFPEVANGKLMILTVTQKTKNDMTVWSEEVEIEREVLLEKFINGAKEICYALRAEGYWADFIDPSSGLAFFGPYTNNTLFETDERYRHLGFSVDDLGCCKVIRHSLWGTHVVVGSIFTNATPDSHIMKKLSGN	
